Values of other authors, collected in patent US6470305B1, “Chemical analysis by morphological similarity” (priority 1998, dated 2002).
pIC50: −log10 of the molar value.

Biological target: CDK2 (Homo sapiens, UniProt P24941)
Settings: weak inhibitor; value from Kim et al., Prog Cell Cycle Res (1996); read-out: IC50 versus CDK2

pIC50: 4.30
Structure (SMILES): CC(C)=CCNc1ncnc2nc[nH]c12 [IPA, isopentenyl adenine]
